Measured values: patent publication US7259004B1, “Endophytic streptomycetes from higher plants with biological activity” (Montana State University, priority 2002, dated 2007)

How the values were obtained:
[1] = tested on: Pseudomonas aeruginosa ATCC 27853; experiment: disk diffusion assay; format: cell-based; settings: A3-5-1 10 micrograms; Chloramphenicol 30 micrograms; MHA 35° C.
[2] = tested on: Enterococcus faecalis ATCC 29212; experiment: disk diffusion assay; format: cell-based; settings: MHA 35° C.
[3] = tested on: Enterococcus faecalis ATCC 51299; experiment: disk diffusion assay; format: cell-based; settings: A3-5-1 10 micrograms; Chloramphenicol 30 micrograms; MHA 35° C.
[4] = tested on: Staphylococcus aureus ATCC 29213; experiment: disk diffusion assay; format: cell-based; settings: MHA 35° C.
[5] = tested on: Acinetobacter sp. ATCC 49137; experiment: disk diffusion assay; format: cell-based; settings: A3-5-1 10 micrograms; Chloramphenicol 30 micrograms; MHA 35° C.
[6] = tested on: Streptococcus pneumoniae ATCC 49619; experiment: disk diffusion assay; format: cell-based; settings: A3-5-1 10 micrograms; Chloramphenicol 30 micrograms; MHA w/5% dsb 35° C. w/5% CO2
[7] = tested on: Escherichia coli ATCC 25922; experiment: disk diffusion assay; format: cell-based; settings: MHA 35° C.
[8] = tested on: S. epidermis ATCC 12228; experiment: disk diffusion assay; format: cell-based, Staphylococcus epidermidis; settings: MHA 35° C.
[9] = tested on: S. maltophilia ATCC 13637; experiment: disk diffusion assay; format: cell-based, Stenotrophomas maltophilia; settings: MHA 35° C.
[10] = tested on: Shigella dysenteriae ATCC 11835; experiment: disk diffusion assay; format: cell-based
[11] = tested on: Enterococcus faecium ATCC 49624; experiment: disk diffusion assay; format: cell-based; settings: for Disk Diffusion, Enterococcus faecium 49624: MHA 35° C.
[12] = tested on: Enterococcus faecium ATCC 51559; experiment: disk diffusion assay; format: cell-based; settings: 10 micrograms per disk; ciprofloxacin 5, vancomycin 30 micrograms per disk; 35° C.
[13] = tested on: B. subtilis 1A757; experiment: microbe, parasite or virus in culture; format: cell-based, Bacillus subtilis
[14] = tested on: Human Cervical Cancer Epithelial ME180; experiment: CellTiter 96 Aqueous Non-Radioactive Cell Proliferation Assay; format: cell-based; settings: Homo sapiens, ME-180; 48 hours; Table 7; read-out: IC50 Human Cervical Cancer Epithelial ME180
Protocol: (§1) The munumbicins were then tested against three human cancer cell lines (ATCC) and human primary mammary epithelial cells (HMECs) (Clonetics; Biowhittaker, Walkersville, Md.) using a CellTiter 96® Aqueous Non-Radioactive Cell Proliferation Assay kit from Promega (Madison, Wis.). The cell lines were A-549 (lung epithelial carcinoma, ATCC CCL-185), ME-180 (cervical epithelial epidermoid carcinoma, ATCC HTB-33), and BT-20 (breast epithelial cancer, ATCC HTB-19), and were grown in the media recommended by ATCC. The primary mammary cells were cultured as recommended by the manufacturer in mammary epithelial cell growth media (MEGM®). […] After seeding, the cells were incubated for five hours at 37° C. before addition of the munumbicins. Two-fold serial dilutions of the munumbicins were made in the culture medium, and a volume equal to that of the seeded cells for each dilution was added to three wells of cells. Each plate also contained some wells with cells plus medium only and some wells with medium only. […] The A-549 and ME-180 cells were incubated for 48 hours. […] The plates were incubated at 37° C. for one to four hours, and the OD490 was determined. The OD reading of all wells was corrected for background by subtracting the reading of wells containing medium only. […] Kakadumycin A was tested against three human cancer cell lines (ATCC) and human primary mammary epithelial cells using the procedure described above for the munumbicins. Kadadumycin B was tested against one human cancer cell line.

[15] = tested on: Human Lung Cancer Epithelial A549; experiment: as above; format: cell-based; settings: Homo sapiens, A549; 48 hours; Table 7; read-out: IC50 Human Lung Cancer Epithelial A549
Protocol: as §1

[16] = tested on: DNA synthesis in Bacillus subtilis; experiment: macromolecular synthesis whole cell assay, [3H]thymidine incorporation; format: cell-based; settings: 1×MIC
[17] = tested on: Protein synthesis in Bacillus subtilis; experiment: macromolecular synthesis whole cell assay, [3H]amino acid mixture incorporation; format: cell-based; settings: 1×MIC
[18] = tested on: Eschericia coli ATCC 10536; experiment: disk diffusion assay; settings: A3-5-1 10 micrograms; Chloramphenicol 30 micrograms; MHA 35° C.
[19] = tested on: Eschericia coli ATCC 35218; experiment: disk diffusion assay; settings: A3-5-1 10 micrograms; Chloramphenicol 30 micrograms; MHA 35° C.
[20] = tested on: Haemophilus influenzae ATCC 49247; experiment: disk diffusion assay; settings: A3-5-1 10 micrograms; Chloramphenicol 30 micrograms; HTM 35° C. with 5% CO2
[21] = tested on: Neiseseria gonorrhoeae ATCC 49266; experiment: disk diffusion assay; settings: A3-5-1 10 micrograms; Chloramphenicol 30 micrograms; GCA w/ 1% supplement in 5% CO2
[22] = tested on: Salmonella typhimurium ATCC 13311; experiment: disk diffusion assay; settings: MHA 35° C.
[23] = tested on: Micrococcus luteus ATCC 9341; experiment: disk diffusion assay; settings: kakadumycin B at 10 μg; control antibiotic; MHA 35° C.
[24] = tested on: Staphylococcus aureus (GISA) ATCC 700699; experiment: disk diffusion assay; settings: MHA 35° C.
[25] = tested on: Staphylococus aureus (GISA) ATCC 700787; experiment: disk diffusion assay; settings: A3-5-1 10 micrograms; Chloramphenicol 30 micrograms; MHA 35° C.
[26] = A3-5-1 10 micrograms, Chloramphenicol 30 micrograms
[27] = kakadumycin B at 10 μg, control antibiotic

Q: `O=C(N[C@H](CO)[C@H](O)c1ccc([N+](=O)[O-])cc1)C(Cl)Cl` [Chloramphenicol, reference compound] was tested. Which “Disk Diffusion, Pseudomonas aeruginosa 27853” value [1] did it give?
A: Its value is “R”.

Q: What about the “Disk Diffusion, Enterococcus faecalis 29212” value [2, 26] of the same compound?
A: Its value is 20 mm.

Q: What about the “Disk Diffusion, Enterococcus faecalis 29212” value [2, 27] of the same compound?
A: Its value is 20 mm.

Q: What about the “Disk Diffusion, Enterococcus faecalis (VRE) 51299” value [3] of the same compound?
A: The value was 8 mm.

Q: And the “Disk Diffusion, Staphylococcus aureus 29213” value [4, 26]?
A: The value was 25 mm.

Q: And the “Disk Diffusion, Staphylococcus aureus 29213” value [4, 27]?
A: Its value is 19 mm.

Q: What about the “Disk Diffusion, Acinetobacter spp. 49137” value [5] of the same compound?
A: The value was 8 mm.

Q: And the “Disk Diffusion, Streptococcus pneumoniae 49619” value [6]?
A: Its value is 22 mm.

Q: What about the “Disk Diffusion, Eschericia coli 25922” value [7, 26] of the same compound?
A: Its value is 29 mm.

Q: And the “Disk Diffusion, Escherichia coli 25922” value [7, 27]?
A: Its value is 26 mm.

Q: And the “Disk Diffusion, Staphylococcus epidermidis 12228” value [8, 26]?
A: Its value is 30 mm.

Q: And the “Disk Diffusion, Staphylococcus epidermidis 12228” value [8, 27]?
A: Its value is 31 mm.

Q: And the “Disk Diffusion, Stenotrophomas maltophilia 13637” value [9, 26]?
A: The value was 28 mm.

Q: What about the “Disk Diffusion, Stenotrophomas maltophilia 13637” value [9, 27] of the same compound?
A: The value was 25 mm.

Q: What about the “diameter of the zone of inhibition, Shigella dysenteriae ATCC 11835” value ([10]; 10 micrograms per disk, 35° C.) of the same compound?
A: Its value is 11 mm.

Q: And the “Disk Diffusion, Shigella dysenteriae 11835” value ([10]; A3-5-1 10 micrograms, Chloramphenicol 30 micrograms, MHA 35° C.)?
A: Its value is 40 mm.

Q: And the “diameter of the zone of inhibition, Enterococcus faecium ATCC 49624” value ([11]; 10 micrograms per disk, ciprofloxacin 5, vancomycin 30 micrograms per disk, 35° C.)?
A: The value was 24 mm.

Q: What about the “Disk Diffusion, Enterococcus faecium 49624” value [11, 26] of the same compound?
A: Its value is 25 mm.

Q: And the “Disk Diffusion, Enterococcus faecium 49624” value [11, 27]?
A: Its value is 20 mm.

Q: What about the “diameter of the zone of inhibition, Enterococcus faecium ATCC 51559” value [12] of the same compound?
A: Its value is 24 mm.

Q: What about the “1×MIC against Bacillus subtilis” value [13] of the same compound?
A: The value was 4 micrograms/ml.

Q: What about the IC50 [14] of the same compound?
A: Its IC50 is greater than 40 µg/mL.

Q: And the IC50 [15]?
A: The IC50 was greater than 40 µg/mL.

Q: What about the “% [3H]thymidine (DNA synthesis) incorporation of that of the untreated culture” value ([16]; 5 min) of the same compound?
A: Its value is 58%.

Q: What about the “% [3H]thymidine (DNA synthesis) incorporation of that of the untreated culture” value ([16]; 10 min) of the same compound?
A: The value was 44%.

Q: And the “% [3H]amino acid mixture (Protein synthesis) incorporation of that of the untreated culture” value ([17]; 5 min)?
A: Its value is 44%.

Q: What about the “% [3H]amino acid mixture (Protein synthesis) incorporation of that of the untreated culture” value ([17]; 10 min) of the same compound?
A: The value was 36%.

Q: And the “Disk Diffusion, Eschericia coli 10536” value [18]?
A: The value was 28 mm.

Q: And the “Disk Diffusion, Eschericia coli 35218” value [19]?
A: The value was “R”.

Q: What about the “Disk Diffusion, Haemophilus influenzae 49247” value [20] of the same compound?
A: The value was 23 mm.

Q: And the “Disk Diffusion, Neiseseria gonorrhoeae 49266” value [21]?
A: Its value is 33 mm.

Q: And the “Disk Diffusion, Salmonella typhimurium 13311” value [22, 26]?
A: The value was 28 mm.

Q: What about the “Disk Diffusion, Salmonella typhimurium 13311” value [22, 27] of the same compound?
A: The value was 28 mm.

Q: What about the “Disk Diffusion, Micrococcus luteus 9341” value [23] of the same compound?
A: The value was 29 mm.

Q: What about the “Disk Diffusion, Staphylococcus aureus (GISA) 700699” value [24, 26] of the same compound?
A: The value was 26 mm.

Q: What about the “Disk Diffusion, Staphylococcus aureus (GISA) 700699” value [24, 27] of the same compound?
A: The value was 29 mm.

Q: And the “Disk Diffusion, Staphylococus aureus (GISA) 700787” value [25]?
A: Its value is 29 mm.
